Each block holds one compound with its values, some of them ahead of it.
Legend:
[1] = target: 5-hydroxytryptamine receptor 1D (Homo sapiens, UniProt P28221); experiment: Binding affinity to Homo sapiens (human) 5HT1D receptor by radioligand binding assay
[2] = target: 5-hydroxytryptamine receptor 1B (Homo sapiens, UniProt P28222); experiment: Binding affinity to Homo sapiens (human) 5HT1B receptor by radioligand binding assay
[3] = test system: Mus musculus; experiment: Toxicity in Mus musculus (mouse) assessed as irritability at 50 mg/kg, ip; assay type: organism-based; parameters: dose 50 mg/kg, route intraperitoneal; conditions: in vivo
[4] = test system: Mus musculus; experiment: Analgesic activity in Mus musculus (mouse) assessed as writhing response at 75 mg/kg, ip relative to control; assay type: functional; conditions: route intraperitoneal
[5] = test system: Mus musculus; experiment: Analgesic activity in Mus musculus (mouse) assessed as writhing response at 25 mg/kg, ip relative to control; assay type: functional; conditions: route intraperitoneal
[6] = test system: Mus musculus; experiment: Toxicity in Mus musculus (mouse) assessed as excitation at 50 mg/kg, ip; assay type: organism-based; parameters: dose 50 mg/kg, route intraperitoneal; conditions: in vivo
[7] = test system: Mus musculus; experiment: Toxicity in Mus musculus (mouse) assessed as protrusion of eyes at 50 mg/kg, ip; assay type: organism-based; parameters: dose 50 mg/kg, route intraperitoneal; conditions: in vivo
[8] = test system: Mus musculus; experiment: Toxicity in Mus musculus (mouse) assessed as tail and hair erection at 50 mg/kg, ip; assay type: organism-based; parameters: dose 50 mg/kg, route intraperitoneal; conditions: in vivo
[9] = test system: Mus musculus; experiment: Toxicity in Mus musculus (mouse) assessed as muscle twitching at 50 mg/kg, ip; assay type: organism-based, Muscle tissue; parameters: dose 50 mg/kg, route intraperitoneal; conditions: in vivo
[10] = test system: Mus musculus; experiment: Toxicity in Mus musculus (mouse) assessed as epilepsy at 50 mg/kg, ip; assay type: organism-based; parameters: dose 50 mg/kg, route intraperitoneal; conditions: in vivo
[11] = test system: Mus musculus; experiment: Toxicity in Mus musculus (mouse) assessed as skeletal muscle incoordination at 50 mg/kg, ip; assay type: organism-based, Muscle tissue; parameters: dose 50 mg/kg, route intraperitoneal; conditions: in vivo
[12] = test system: Mus musculus; experiment: Toxicity in Mus musculus (mouse) assessed as tremors at 50 mg/kg, ip; assay type: organism-based; parameters: dose 50 mg/kg, route intraperitoneal; conditions: in vivo
[13] = test system: Mus musculus; experiment: Analgesic activity in Mus musculus (mouse) assessed as writhing response at 50 mg/kg, ip relative to control; assay type: functional; conditions: route intraperitoneal
[14] = test system: Mus musculus; experiment: Toxicity in Mus musculus (mouse) assessed as difficulties in respiration at 50 mg/kg, ip; assay type: organism-based; parameters: dose 50 mg/kg, route intraperitoneal; conditions: in vivo
[15] = test system: Mus musculus; experiment: Analgesic activity in Mus musculus (mouse) assessed as writhing response at 20 mg/kg, ip relative to control; assay type: functional; conditions: route intraperitoneal
[16] = test system: Mus musculus; experiment: Toxicity in Mus musculus (mouse) assessed as muscle twitching at 20 mg/kg, ip; assay type: organism-based, Muscle tissue; parameters: dose 20 mg/kg, route intraperitoneal; conditions: in vivo
[17] = test system: Mus musculus; experiment: Toxicity in Mus musculus (mouse) assessed as skeletal muscle incoordination at 20 mg/kg, ip; assay type: organism-based, Muscle tissue; parameters: dose 20 mg/kg, route intraperitoneal; conditions: in vivo
[18] = test system: Mus musculus; experiment: Toxicity in Mus musculus (mouse) assessed as difficulties in respiration at 20 mg/kg, ip; assay type: organism-based; parameters: dose 20 mg/kg, route intraperitoneal; conditions: in vivo
[19] = test system: Mus musculus; experiment: Toxicity in Mus musculus (mouse) assessed as epilepsy at 20 mg/kg, ip; assay type: organism-based; parameters: dose 20 mg/kg, route intraperitoneal; conditions: in vivo
[20] = test system: Mus musculus; experiment: Toxicity in Mus musculus (mouse) assessed as irritability at 20 mg/kg, ip; assay type: organism-based; parameters: dose 20 mg/kg, route intraperitoneal; conditions: in vivo
[21] = test system: Mus musculus; experiment: Toxicity in Mus musculus (mouse) assessed as protrusion of eyes at 20 mg/kg, ip; assay type: organism-based; parameters: dose 20 mg/kg, route intraperitoneal; conditions: in vivo
[22] = test system: Mus musculus; experiment: Toxicity in Mus musculus (mouse) assessed as excitation at 20 mg/kg, ip; assay type: organism-based; parameters: dose 20 mg/kg, route intraperitoneal; conditions: in vivo
[23] = test system: Mus musculus; experiment: Toxicity in Mus musculus (mouse) assessed as tremors at 20 mg/kg, ip; assay type: organism-based; parameters: dose 20 mg/kg, route intraperitoneal; conditions: in vivo
[24] = test system: Mus musculus; experiment: Toxicity in Mus musculus (mouse) assessed as tail and hair erection at 20 mg/kg, ip; assay type: organism-based; parameters: dose 20 mg/kg, route intraperitoneal; conditions: in vivo
[25] = test system: Mus musculus; experiment: Analgesic activity in Mus musculus (mouse) assessed as writhing response at 100 mg/kg, ip relative to control; assay type: functional; conditions: route intraperitoneal

Sequence of 5-hydroxytryptamine receptor 1D (P28221 whole entry): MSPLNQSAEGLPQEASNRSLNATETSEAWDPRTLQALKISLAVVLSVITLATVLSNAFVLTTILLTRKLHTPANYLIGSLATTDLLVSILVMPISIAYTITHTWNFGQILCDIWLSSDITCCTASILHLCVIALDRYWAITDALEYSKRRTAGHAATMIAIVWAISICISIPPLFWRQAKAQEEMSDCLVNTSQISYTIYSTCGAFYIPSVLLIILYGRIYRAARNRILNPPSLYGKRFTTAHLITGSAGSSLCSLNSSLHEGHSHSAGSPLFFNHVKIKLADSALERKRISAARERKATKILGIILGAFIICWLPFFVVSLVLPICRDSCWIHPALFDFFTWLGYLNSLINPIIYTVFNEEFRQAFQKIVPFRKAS
Sequence of 5-hydroxytryptamine receptor 1B (P28222 whole entry): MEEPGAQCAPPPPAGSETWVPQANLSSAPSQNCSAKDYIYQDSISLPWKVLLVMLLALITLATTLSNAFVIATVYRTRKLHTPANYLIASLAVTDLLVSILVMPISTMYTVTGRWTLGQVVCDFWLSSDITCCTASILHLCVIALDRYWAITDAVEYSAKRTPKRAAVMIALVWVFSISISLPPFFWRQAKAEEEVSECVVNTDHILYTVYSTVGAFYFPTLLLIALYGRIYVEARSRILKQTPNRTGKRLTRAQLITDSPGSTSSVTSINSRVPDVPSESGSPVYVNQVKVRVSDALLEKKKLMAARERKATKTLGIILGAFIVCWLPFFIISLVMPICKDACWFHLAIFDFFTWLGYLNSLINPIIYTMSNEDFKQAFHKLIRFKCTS

Ki [1]: 1.49 µM
Ki [2]: 0.833 µM
Compound: CN1CCN([C@@H](COc2cccc(Cl)c2Cl)c2ccccc2)CC1

Ki [1]: 7.79 µM
Compound: CN[C@H](COc1cccc(Cl)c1Cl)c1ccccc1

Ki [1]: 0.599 µM
Ki [2]: 2.48 µM
Compound: CNC(C)COc1cccc(Cl)c1Cl (racemic)

Ki [1]: 0.393 µM
Ki [2]: 0.752 µM
Compound: CNC(C)COc1cccc(Oc2ccccc2)c1 (racemic)

Ki [1]: 5.46 µM
Ki [2]: 0.912 µM
Compound: CN1CCN([C@H](COc2cccc(Cl)c2Cl)c2ccccc2)CC1

Ki [1]: 2.03 µM
Ki [2]: 0.0364 µM
Compound: CNCCOc1cccc(Cl)c1Cl

Ki [1]: > 10 µM
Ki [2]: 1.46 µM
Compound: CN1CCN(CCOc2ccc(Br)cc2Br)CC1

Ki [1]: 6.29 µM
Ki [2]: > 10 µM
Compound: CN[C@@H](COc1cccc(Cl)c1Cl)c1ccccc1

Further lines, the compound ahead of its results:

Compound: CNC(C)COc1ccc(Cl)cc1Cl (racemic)
Ki [1]: 2.87 µM
Ki [2]: 4.2 µM

Compound: CNCCOc1ccc(Br)cc1Br
Ki [1]: 1.24 µM
Ki [2]: 1.25 µM

Compound: CNC(C)COc1ccc(Br)cc1Br (racemic)
Ki [1]: 1.12 µM
Ki [2]: 2.32 µM

Compound: CNC(C)COc1c(Br)cccc1Br.O=C(O)C(=O)O (racemic)
Activity [3]: Toxic
Activity [4]: 100%
Ki [1]: 0.225 µM
Activity [5]: 0%
Activity [6]: Toxic
Activity [7]: Toxic
Activity [8]: Toxic
Ki [2]: 0.0715 µM
Activity [9]: Toxic
Activity [10]: Toxic
Activity [11]: Toxic
Activity [12]: Toxic
Activity [13]: 75%
Activity [14]: Toxic

Compound: CNC(C)COc1cc(Cl)ccc1Cl.O=C(O)C(=O)O (racemic)
Activity [15]: 66%
Activity [16]: Toxic
Activity [17]: Toxic
Activity [18]: Toxic
Ki [1]: 5.4 µM
Activity [19]: Toxic
Activity [20]: Toxic
Ki [2]: 6.69 µM
Activity [21]: Toxic
Activity [22]: Toxic
Activity [23]: Toxic
Activity [24]: Toxic

Compound: CNCCOc1cc(Cl)ccc1Cl
Ki [1]: 3.82 µM
Ki [2]: 3.64 µM

Compound: CNCCOc1c(Br)cccc1Br.O=C(O)C(=O)O
Activity [3]: Toxic
Activity [4]: 100%
Activity [5]: 25%
Activity [6]: Toxic
Activity [7]: Toxic
Activity [8]: Toxic
Activity [9]: Toxic
Activity [10]: Toxic
Activity [11]: Toxic
Activity [12]: Toxic
Activity [13]: 62.5%
Activity [14]: Toxic

Compound: CC(=O)Oc1ccccc1C(=O)O [ASPIRIN]
Activity [25]: 100%

Compound: CNCCOc1ccc(Cl)cc1Cl
Ki [1]: 0.975 µM
Ki [2]: 2.75 µM

— ChEMBL document CHEMBL3045296, “Synthesis of aryloxyalkylamines as h5-HT1B agonists with potential analgesic activity” (Med Chem Res, 2009)
